This note sets out measurements from ChEMBL document CHEMBL1131237 (J Med Chem, 1998).

Assay [1] concerns the target T1, Sodium-dependent dopamine transporter (Rattus norvegicus, UniProt P23977). As to the kind of experiment: Inhibition of high-affinity uptake of [3H]dopamine at dopamine transporter into rat striatal nerve endings (synaptosomes). Format: subcellular, Brain.
The target of assay [2] is T1, Sodium-dependent dopamine transporter. As to the kind of experiment: Ability to displace [3H]WIN-35428 binding to dopamine transporter from rat striatal membranes.
The target in assay [3] is Sodium-dependent dopamine transporter (Rattus norvegicus) (UniProt P23977). As to the kind of experiment: Hill coefficient was determined.
Sodium-dependent dopamine transporter (Rattus norvegicus), sequence (P23977 whole entry): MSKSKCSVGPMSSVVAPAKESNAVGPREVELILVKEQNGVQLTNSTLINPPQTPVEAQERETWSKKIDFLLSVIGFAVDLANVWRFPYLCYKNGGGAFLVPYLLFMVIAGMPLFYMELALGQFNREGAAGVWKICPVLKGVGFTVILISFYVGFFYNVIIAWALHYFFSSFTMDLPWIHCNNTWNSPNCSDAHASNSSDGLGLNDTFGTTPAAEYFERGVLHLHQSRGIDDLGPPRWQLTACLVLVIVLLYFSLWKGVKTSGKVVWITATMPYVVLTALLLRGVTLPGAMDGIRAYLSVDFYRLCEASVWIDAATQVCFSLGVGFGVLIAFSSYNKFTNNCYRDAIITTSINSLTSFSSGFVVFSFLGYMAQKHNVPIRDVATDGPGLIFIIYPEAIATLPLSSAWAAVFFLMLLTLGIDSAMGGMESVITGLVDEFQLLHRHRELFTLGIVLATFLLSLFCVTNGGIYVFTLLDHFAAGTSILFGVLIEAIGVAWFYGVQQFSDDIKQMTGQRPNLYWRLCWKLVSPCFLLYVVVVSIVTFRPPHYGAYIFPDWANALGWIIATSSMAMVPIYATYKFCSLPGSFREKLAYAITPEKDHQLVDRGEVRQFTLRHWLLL
The target is the same in assay [4].

Values joined by “and” are separate entries in the source; they are usually repeats but may differ in a detail not shown here. Identical values can stand only once.

T1 sequence (P23977 whole entry): as above

The IC50 is the point on the concentration scale where inhibition reaches its midpoint. The low end stands for inhibition by little substance, the high end for a need for much substance. The term Hill coefficient denotes a measure of the steepness of the concentration-response curve. For the molecule `CCCC1CN(C)CC[C@@H]1c1ccc(Cl)cc1` (single isomer, unassigned), the values for the IC50 in assay [1] and in assay [2] were 23.2 nM and 17.2 nM, respectively. Further, in assay [3], the Hill coefficient is 0.85 and 1.03. `CC(=O)OC[C@@H]1CN(C)CC[C@@H]1c1ccc(Cl)cc1`: the Hill coefficient in assay [4] was 0.66 and 1.03. Regarding `COC(=O)[C@H]1[C@@H](OC(=O)c2ccccc2)CC2CC[C@H]1N2C` (single isomer, unassigned), the Hill coefficient in assay [4] is 0.87 and 1.06. Same read-out and setting: as for `COC(=O)C1CN(C)CC[C@@H]1c1ccc(Cl)cc1` (single isomer, unassigned), the figure is 0.78 and 0.97. Molecule `COC(=O)C1CN(C)CC[C@@H]1c1ccccc1` (stereo partly specified) yielded an IC50 in assay [2] of 769 nM. The Hill coefficient in assay [3] is 1.02.

Consider `CN1CC[C@H](c2ccc(Cl)cc2)C(CO)C1` (single isomer, unassigned; (-)-5) [listing 1 of 2 here], for which the half-inhibitory concentration (IC50) was found to be 49 nM in assay [1] and 75.3 nM in assay [2]. Regarding `CN1CC[C@H](c2ccc(Cl)cc2)C(CO)C1` (single isomer, unassigned; (+)-13) [listing 1 of 2 here], the Hill coefficient in assay [4] was 0.85 and 1.09. As to `CCC[C@@H]1CN(C)CC[C@@H]1c1ccc(Cl)cc1`, in assay [3], the Hill coefficient was 0.64 and 1.04. Consider `COC(=O)[C@@H]1CN(C)CC[C@@H]1c1ccc(Cl)cc1`, for which the Hill coefficient in assay [4] is 0.78 and 0.94. As for `COC(=O)[C@H]1CN(C)CC[C@H]1c1ccc(Cl)cc1`, the IC50 in assay [1] came out at 195 nM; in assay [2], 653 nM. Besides, the Hill coefficient in assay [3] was 0.96 and 1.08. In assay [2], `COC(=O)[C@H]1CN(C)CC[C@@H]1c1ccc(Cl)cc1` (racemic) showed an IC50 of 197 nM. This molecule also showed a Hill coefficient in assay [4] of 0.91. In the case of `CN1CC[C@@H](c2ccc(Cl)cc2)C(CO)C1` (stereo partly specified), the IC50 in assay [2] stood at 442 nM. In assay [4], this molecule showed a Hill coefficient of 0.66.

Regarding `CN1CC[C@H](c2ccc(Cl)cc2)C(CO)C1` (single isomer, unassigned; (-)-5) [listing 2 of 2 here], the Hill coefficient in assay [4] is 0.56 and 1.04. For `COC(=O)C1CN(C)CC[C@H]1c1ccc(Cl)cc1` (single isomer, unassigned), in assay [1], half-maximal inhibition (IC50) required 5090 nM. Also, in assay [3], the Hill coefficient was 0.81 and 0.95. As for `CC(=O)OCC1CN(C)CC[C@H]1c1ccc(Cl)cc1` (stereo partly specified), the IC50 turned out to be 2020 nM in assay [1] and 928 nM in assay [2]. Further, the Hill coefficient in assay [4] is 0.89 and 1.07. As for `COC(=O)[C@@H]1CN(C)CC[C@@H]1c1ccc(Cl)cc1` (racemic), in assay [4], the Hill coefficient was 0.91 and 1.04.

For the molecule `CC(=O)OCC1CN(C)CC[C@@H]1c1ccc(Cl)cc1` (single isomer, unassigned), the IC50 in assay [2] is 461 nM. The molecule further had a Hill coefficient in assay [4] of 0.76. For the molecule `CN1CC[C@H](c2ccc(Cl)cc2)C(CO)C1` (single isomer, unassigned; (+)-13) [listing 2 of 2 here], the figures for the IC50 in assay [1] and in assay [2] were 683 nM and 240 nM, respectively.
